According to patent US11414379B2, “SPAK kinase inhibitors as neuroprotective agents” (United States Government as represented by the Department …, priority 2018, dated 2022):

How the values were obtained:
Assay in all cases: Kinase panel (Dundee profiling)
Format in all cases: biochemical
Conditions in all cases: read-out: % residual kinase activity
[1] = biological target: DYRK3 (Homo sapiens, UniProt O43781)
Protocol: (§1) The kinase selectivity of ZT-1a was further assessed using standard radioisotopic enzymatic assays against a panel of 140 recombinant kinases (Dundee profiling, Table 2) (Bain et al. (2007) The Biochemical journal 408, 297-315). ZT-1a at a concentration of 10 μM inhibited only MAPKAP-K2 activity 85±7% compared to DMSO control, representing high kinase selectivity.
(§2) Referring to Table 2, ZT-1a was tested at 10 and 1 μM against a panel of 140 recombinant kinases in an enzymatic activity-based assay performed by the International Centre for Kinase Profiling in the MRC Protein Phosphorylation and Ubiquitylation Unit. Values represent % residual kinase activity (mean+/−SEM, n=3). Kinases labelled with an asterick* are inhibited ≥50% by ZT-1a.

[2] = biological target: PRAK (Homo sapiens, UniProt Q8IW41)
Protocol: as §1, §2

[3] = biological target: MELK (Homo sapiens, UniProt Q14680)
Chain of MELK (Q14680 whole entry, species assumed): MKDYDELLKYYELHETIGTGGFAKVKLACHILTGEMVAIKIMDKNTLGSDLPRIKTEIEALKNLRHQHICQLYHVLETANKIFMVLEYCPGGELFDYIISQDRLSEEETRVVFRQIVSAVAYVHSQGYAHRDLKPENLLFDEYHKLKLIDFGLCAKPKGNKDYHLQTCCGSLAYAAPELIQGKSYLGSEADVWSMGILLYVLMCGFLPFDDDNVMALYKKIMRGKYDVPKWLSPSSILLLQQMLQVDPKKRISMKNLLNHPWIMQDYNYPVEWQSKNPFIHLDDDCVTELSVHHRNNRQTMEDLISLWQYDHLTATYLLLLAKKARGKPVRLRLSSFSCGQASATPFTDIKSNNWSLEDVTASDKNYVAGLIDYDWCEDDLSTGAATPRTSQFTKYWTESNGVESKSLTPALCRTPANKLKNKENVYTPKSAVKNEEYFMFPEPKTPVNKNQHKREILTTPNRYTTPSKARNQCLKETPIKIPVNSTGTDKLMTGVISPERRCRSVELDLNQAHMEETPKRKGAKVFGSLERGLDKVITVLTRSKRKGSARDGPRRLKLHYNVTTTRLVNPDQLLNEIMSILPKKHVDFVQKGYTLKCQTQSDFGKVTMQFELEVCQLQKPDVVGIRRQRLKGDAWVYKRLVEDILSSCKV
Protocol: as §1, §2

[4] = biological target: TrkA (Homo sapiens, UniProt P04629)
Protocol: as §1, §2

[5] = biological target: MINK1 (Homo sapiens, UniProt Q8N4C8)
Protocol: as §1, §2

[6] = biological target: PIM1 (Homo sapiens, UniProt P11309)
Chain of PIM1 (P11309 whole entry, species assumed): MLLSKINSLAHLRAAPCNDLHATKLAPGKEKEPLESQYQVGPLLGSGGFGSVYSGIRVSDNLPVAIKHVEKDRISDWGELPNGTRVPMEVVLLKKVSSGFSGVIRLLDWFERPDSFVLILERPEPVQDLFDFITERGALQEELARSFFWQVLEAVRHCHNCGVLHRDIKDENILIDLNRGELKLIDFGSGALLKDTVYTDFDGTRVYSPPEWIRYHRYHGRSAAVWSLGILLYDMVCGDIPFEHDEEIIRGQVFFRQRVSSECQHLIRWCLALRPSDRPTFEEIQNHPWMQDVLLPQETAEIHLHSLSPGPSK
Protocol: as §1, §2

[7] = biological target: IRAK1 (Homo sapiens, UniProt P51617)
Protocol: as §1, §2

[8] = biological target: PIM3 (Homo sapiens, UniProt Q86V86)
Protocol: as §1, §2

[9] = biological target: TLK1 (Homo sapiens, UniProt Q9UKI8)
Protocol: as §1, §2

[10] = biological target: ASK1 (Homo sapiens, UniProt Q99683)
Protocol: as §1, §2

[11] = biological target: PINK (Tribolium castaneum, UniProt D6WMX4)
Chain of PINK (D6WMX4 6-570): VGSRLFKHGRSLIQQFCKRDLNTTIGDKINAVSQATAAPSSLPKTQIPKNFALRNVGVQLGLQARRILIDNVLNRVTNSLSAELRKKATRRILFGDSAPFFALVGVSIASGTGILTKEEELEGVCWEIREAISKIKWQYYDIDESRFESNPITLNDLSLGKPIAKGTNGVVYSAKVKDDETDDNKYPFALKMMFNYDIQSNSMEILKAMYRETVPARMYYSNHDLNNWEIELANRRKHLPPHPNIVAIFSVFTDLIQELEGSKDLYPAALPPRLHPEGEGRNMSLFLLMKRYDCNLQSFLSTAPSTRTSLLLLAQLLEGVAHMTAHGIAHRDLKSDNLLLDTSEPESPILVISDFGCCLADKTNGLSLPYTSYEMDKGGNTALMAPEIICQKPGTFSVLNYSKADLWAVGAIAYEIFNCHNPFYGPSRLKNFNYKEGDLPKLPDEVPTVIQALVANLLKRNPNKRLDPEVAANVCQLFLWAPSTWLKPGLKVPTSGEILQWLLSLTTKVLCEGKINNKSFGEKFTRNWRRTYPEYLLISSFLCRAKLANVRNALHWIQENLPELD
Protocol: as §1, §2

[12] = biological target: TAO1 (Homo sapiens, UniProt Q7L7X3)
Chain of TAO1 (Q7L7X3 whole entry): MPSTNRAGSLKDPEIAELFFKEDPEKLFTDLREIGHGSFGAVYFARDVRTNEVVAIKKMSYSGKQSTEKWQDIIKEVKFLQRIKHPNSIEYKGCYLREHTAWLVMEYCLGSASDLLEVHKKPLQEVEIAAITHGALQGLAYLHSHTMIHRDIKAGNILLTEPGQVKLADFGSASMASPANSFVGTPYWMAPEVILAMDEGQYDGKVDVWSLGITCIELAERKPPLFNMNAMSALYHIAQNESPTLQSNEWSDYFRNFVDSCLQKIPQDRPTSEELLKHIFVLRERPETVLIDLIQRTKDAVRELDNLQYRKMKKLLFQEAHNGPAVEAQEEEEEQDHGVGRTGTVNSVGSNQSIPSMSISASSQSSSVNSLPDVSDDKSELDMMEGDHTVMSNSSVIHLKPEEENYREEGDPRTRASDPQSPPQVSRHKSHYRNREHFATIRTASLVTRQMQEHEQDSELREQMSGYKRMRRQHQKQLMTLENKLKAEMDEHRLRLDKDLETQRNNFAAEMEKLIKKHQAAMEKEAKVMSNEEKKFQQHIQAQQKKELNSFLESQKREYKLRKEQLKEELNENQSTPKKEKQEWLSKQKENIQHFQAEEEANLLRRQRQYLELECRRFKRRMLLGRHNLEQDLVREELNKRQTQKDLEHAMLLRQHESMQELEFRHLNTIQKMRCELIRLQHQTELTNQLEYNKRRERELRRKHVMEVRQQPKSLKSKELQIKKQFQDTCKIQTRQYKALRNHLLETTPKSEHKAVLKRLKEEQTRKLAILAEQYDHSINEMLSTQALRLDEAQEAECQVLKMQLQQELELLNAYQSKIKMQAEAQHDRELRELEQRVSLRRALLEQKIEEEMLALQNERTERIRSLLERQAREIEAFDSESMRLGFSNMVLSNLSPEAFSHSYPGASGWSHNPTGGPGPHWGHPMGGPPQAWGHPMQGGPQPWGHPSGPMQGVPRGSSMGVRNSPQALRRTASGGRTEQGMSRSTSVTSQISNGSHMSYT
Protocol: as §1, §2

[13] = biological target: GSK3b (Homo sapiens, UniProt P49841)
Protocol: as §1, §2

[14] = biological target: YES1 (Homo sapiens, UniProt P07947)
Protocol: as §1, §2

[15] = biological target: PKCγ (Homo sapiens, UniProt P05129)
Protocol: as §1, §2

[16] = biological target: CDK2-Cyclin A (Homo sapiens, UniProt P24941)
Protocol: as §1, §2

[17] = biological target: MKK1 (Homo sapiens, UniProt Q02750)
Protocol: as §1, §2

[18] = biological target: IRR (Homo sapiens, UniProt P14616)
Protocol: as §1, §2

[19] = biological target: STK33 (Homo sapiens, UniProt Q9BYT3)
Protocol: as §1, §2

[20] = biological target: CHK1 (Homo sapiens, UniProt O14757)
Protocol: as §1, §2

[21] = biological target: MSK1 (Homo sapiens, UniProt O75582)
Chain of MSK1 (O75582 whole entry, species assumed): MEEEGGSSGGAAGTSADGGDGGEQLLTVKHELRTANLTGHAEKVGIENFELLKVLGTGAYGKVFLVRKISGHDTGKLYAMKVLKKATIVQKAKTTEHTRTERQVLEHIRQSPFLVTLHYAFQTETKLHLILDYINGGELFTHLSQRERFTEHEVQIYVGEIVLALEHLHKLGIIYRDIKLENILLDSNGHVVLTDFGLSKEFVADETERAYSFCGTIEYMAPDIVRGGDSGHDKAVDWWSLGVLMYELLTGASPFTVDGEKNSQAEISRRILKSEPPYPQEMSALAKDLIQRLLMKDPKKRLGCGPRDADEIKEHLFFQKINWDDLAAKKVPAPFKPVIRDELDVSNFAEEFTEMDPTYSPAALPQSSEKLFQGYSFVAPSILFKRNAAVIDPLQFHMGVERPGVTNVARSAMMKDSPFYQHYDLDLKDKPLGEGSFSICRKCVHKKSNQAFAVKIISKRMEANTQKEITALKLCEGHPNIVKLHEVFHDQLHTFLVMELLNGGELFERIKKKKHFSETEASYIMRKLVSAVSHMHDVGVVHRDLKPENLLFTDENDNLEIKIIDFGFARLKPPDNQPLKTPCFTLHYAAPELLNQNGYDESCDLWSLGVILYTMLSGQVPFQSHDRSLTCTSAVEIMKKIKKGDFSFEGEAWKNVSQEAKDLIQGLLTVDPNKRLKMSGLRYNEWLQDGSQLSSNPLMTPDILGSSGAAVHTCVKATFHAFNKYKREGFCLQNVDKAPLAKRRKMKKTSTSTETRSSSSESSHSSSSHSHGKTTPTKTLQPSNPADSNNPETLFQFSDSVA
Protocol: as §1, §2

[22] = biological target: SIK3 (Homo sapiens, UniProt Q9Y2K2)
Protocol: as §1, §2

[23] = biological target: PIM2 (Homo sapiens, UniProt Q9P1W9)
Protocol: as §1, §2

[24] = biological target: SYK (Homo sapiens, UniProt P43405)
Protocol: as §1, §2

[25] = biological target: EIF2AK3 (Homo sapiens, UniProt Q9NZJ5)
Protocol: as §1, §2

[26] = biological target: IRAK4 (Homo sapiens, UniProt Q9NWZ3)
Protocol: as §1, §2

[27] = biological target: Aurora A (Homo sapiens, UniProt O14965)
Protocol: as §1, §2

[28] = biological target: FGF-R1 (Homo sapiens, UniProt P11362)
Chain of FGF-R1 (P11362 22-822, species assumed): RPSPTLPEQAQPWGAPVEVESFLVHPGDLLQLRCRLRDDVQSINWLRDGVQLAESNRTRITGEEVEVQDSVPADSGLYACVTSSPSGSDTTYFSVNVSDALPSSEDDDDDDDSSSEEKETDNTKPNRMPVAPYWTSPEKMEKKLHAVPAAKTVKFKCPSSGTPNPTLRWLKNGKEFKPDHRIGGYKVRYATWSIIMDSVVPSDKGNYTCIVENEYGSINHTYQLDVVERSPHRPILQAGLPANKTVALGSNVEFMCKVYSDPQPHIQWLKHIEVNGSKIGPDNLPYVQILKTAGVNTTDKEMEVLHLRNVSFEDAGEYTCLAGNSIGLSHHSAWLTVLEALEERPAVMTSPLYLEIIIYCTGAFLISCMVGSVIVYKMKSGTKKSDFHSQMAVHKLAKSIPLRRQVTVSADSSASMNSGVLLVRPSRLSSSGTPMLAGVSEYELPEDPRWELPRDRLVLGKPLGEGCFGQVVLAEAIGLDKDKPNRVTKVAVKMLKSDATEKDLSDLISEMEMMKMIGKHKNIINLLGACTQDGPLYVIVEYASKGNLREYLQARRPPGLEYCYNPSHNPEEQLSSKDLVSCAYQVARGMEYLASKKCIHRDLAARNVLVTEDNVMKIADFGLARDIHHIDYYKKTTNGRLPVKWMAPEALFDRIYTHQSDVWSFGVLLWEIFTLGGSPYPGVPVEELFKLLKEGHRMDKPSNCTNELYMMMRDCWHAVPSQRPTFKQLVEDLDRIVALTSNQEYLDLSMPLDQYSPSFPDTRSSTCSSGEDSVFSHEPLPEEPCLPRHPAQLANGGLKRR
Protocol: as §1, §2

[29] = biological target: PKCz (Homo sapiens, UniProt Q05513)
Protocol: as §1, §2

[30] = biological target: MAP4K3 (Homo sapiens, UniProt Q8IVH8)
Protocol: as §1, §2

[31] = biological target: BRSK1 (Homo sapiens, UniProt Q8TDC3)
Chain of BRSK1 (Q8TDC3 whole entry, species assumed): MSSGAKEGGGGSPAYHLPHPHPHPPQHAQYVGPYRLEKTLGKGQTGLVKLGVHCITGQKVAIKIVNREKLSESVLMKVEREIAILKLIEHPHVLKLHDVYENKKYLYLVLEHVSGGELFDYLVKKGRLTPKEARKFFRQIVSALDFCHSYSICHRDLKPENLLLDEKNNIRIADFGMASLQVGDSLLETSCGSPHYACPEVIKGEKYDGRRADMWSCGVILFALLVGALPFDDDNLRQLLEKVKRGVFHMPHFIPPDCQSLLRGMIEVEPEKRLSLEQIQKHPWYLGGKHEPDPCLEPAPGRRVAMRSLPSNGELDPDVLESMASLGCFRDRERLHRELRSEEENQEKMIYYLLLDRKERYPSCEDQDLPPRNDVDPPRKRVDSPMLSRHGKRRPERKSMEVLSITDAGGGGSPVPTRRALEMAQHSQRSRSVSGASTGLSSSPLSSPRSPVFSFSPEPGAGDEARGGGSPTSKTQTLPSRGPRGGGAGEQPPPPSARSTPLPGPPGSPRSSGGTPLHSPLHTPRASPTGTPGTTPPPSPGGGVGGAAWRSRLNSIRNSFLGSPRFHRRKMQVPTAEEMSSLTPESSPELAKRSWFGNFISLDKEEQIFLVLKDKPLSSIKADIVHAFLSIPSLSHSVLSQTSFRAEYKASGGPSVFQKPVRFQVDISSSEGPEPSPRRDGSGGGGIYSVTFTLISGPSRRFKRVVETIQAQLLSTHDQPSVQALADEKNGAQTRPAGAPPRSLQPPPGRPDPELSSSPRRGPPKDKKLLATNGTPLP
Protocol: as §1, §2

[32] = biological target: ZAP70 (Homo sapiens, UniProt P43403)
Protocol: as §1, §2

Cc1cc(C(C#N)c2ccc(Cl)cc2)c(Cl)cc1NC(=O)c1cc(Cl)ccc1O (stereo not shown) [ZT-1a, 5-chloro-N-(5-chloro-4-((4-chlorophenyl)(cyano)methyl)-2-methylphenyl)-2-hydroxy-benzamide]
remaining activity at 1 µM ([1]; 1 μM): 113 ± 6%
remaining activity at 10 µM ([1]; 10 μM): 56 ± 15%
remaining activity at 1 µM ([2]; 1 μM): 78 ± 13%
remaining activity at 10 µM ([2]; 10 μM): 41 ± 7%
remaining activity at 1 µM ([3]; 1 μM): 130 ± 34%
remaining activity at 10 µM ([3]; 10 μM): 63 ± 3%
remaining activity at 1 µM ([4]; 1 μM): 108 ± 9%
remaining activity at 10 µM ([4]; 10 μM): 91 ± 7%
remaining activity at 1 µM ([5]; 1 μM): 107 ± 5%
remaining activity at 10 µM ([5]; 10 μM): 108 ± 6%
remaining activity at 1 µM ([6]; 1 μM): 108 ± 19%
remaining activity at 10 µM ([6]; 10 μM): 101 ± 8%
remaining activity at 1 µM ([7]; 1 μM): 128 ± 2%
remaining activity at 10 µM ([7]; 10 μM): 95 ± 7%
remaining activity at 1 µM ([8]; 1 μM): 115 ± 12%
remaining activity at 10 µM ([8]; 10 μM): 99 ± 2%
remaining activity at 1 µM ([9]; 1 μM): 130 ± 13%
remaining activity at 10 µM ([9]; 10 μM): 124 ± 4%
remaining activity at 1 µM ([10]; 1 μM): 101 ± 3%
remaining activity at 10 µM ([10]; 10 μM): 100 ± 11%
remaining activity at 1 µM ([11]; 1 μM): 101 ± 13%
remaining activity at 10 µM ([11]; 10 μM): 59 ± 4%
remaining activity at 1 µM ([12]; 1 μM): 66 ± 2%
remaining activity at 10 µM ([12]; 10 μM): 104 ± 2%
remaining activity at 1 µM ([13]; 1 μM): 39 ± 4%
remaining activity at 10 µM ([13]; 10 μM): 38 ± 12%
remaining activity at 1 µM ([14]; 1 μM): 109 ± 3%
remaining activity at 10 µM ([14]; 10 μM): 98 ± 7%
remaining activity at 1 µM ([15]; 1 μM): 133 ± 11%
remaining activity at 10 µM ([15]; 10 μM): 120 ± 8%
remaining activity at 1 µM ([16]; 1 μM): 128 ± 12%
remaining activity at 10 µM ([16]; 10 μM): 125 ± 6%
remaining activity at 1 µM ([17]; 1 μM): 106 ± 2%
remaining activity at 10 µM ([17]; 10 μM): 114 ± 17%
remaining activity at 1 µM ([18]; 1 μM): 105 ± 5%
remaining activity at 10 µM ([18]; 10 μM): 95 ± 4%
remaining activity at 1 µM ([19]; 1 μM): 114 ± 7%
remaining activity at 10 µM ([19]; 10 μM): 100 ± 5%
remaining activity at 1 µM ([20]; 1 μM): 111 ± 11%
remaining activity at 10 µM ([20]; 10 μM): 109 ± 8%
remaining activity at 1 µM ([21]; 1 μM): 114 ± 6%
remaining activity at 10 µM ([21]; 10 μM): 112 ± 14%
remaining activity at 1 µM ([22]; 1 μM): 104 ± 9%
remaining activity at 10 µM ([22]; 10 μM): 88%
remaining activity at 1 µM ([23]; 1 μM): 93 ± 5%
remaining activity at 10 µM ([23]; 10 μM): 93 ± 3%
remaining activity at 1 µM ([24]; 1 μM): 93 ± 12%
remaining activity at 10 µM ([24]; 10 μM): 93 ± 1%
remaining activity at 1 µM ([25]; 1 μM): 114 ± 2%
remaining activity at 10 µM ([25]; 10 μM): 100 ± 3%
remaining activity at 1 µM ([26]; 1 μM): 127%
remaining activity at 10 µM ([26]; 10 μM): 127 ± 11%
remaining activity at 1 µM ([27]; 1 μM): 73 ± 19%
remaining activity at 10 µM ([27]; 10 μM): 65 ± 1%
remaining activity at 1 µM ([28]; 1 μM): 93 ± 6%
remaining activity at 10 µM ([28]; 10 μM): 101 ± 15%
remaining activity at 1 µM ([29]; 1 μM): 80 ± 11%
remaining activity at 10 µM ([29]; 10 μM): 122 ± 28%
remaining activity at 1 µM ([30]; 1 μM): 134 ± 5%
remaining activity at 10 µM ([30]; 10 μM): 88 ± 2%
remaining activity at 1 µM ([31]; 1 μM): 108 ± 14%
remaining activity at 10 µM ([31]; 10 μM): 88 ± 22%
remaining activity at 1 µM ([32]; 1 μM): 120 ± 1%
remaining activity at 10 µM ([32]; 10 μM): 97 ± 9%
